Assay results reported in ChEMBL document CHEMBL1201862, “PubChem BioAssay data set” (2004).
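96-well plates; 48 h exposure; 5 concentrations. Endpoints by linear interpolation between flanking doses. Not reached: highest tested concentration assigned. At the GI50, growth is halved.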 Active and inactive are the calls of the source. Cut-off read from the data, not from the text of the source: active = GI50 up to about 1.1 µM and inactive = higher.

Tests used:
Assay in all cases: NCI tumour cell line growth inhibition, 48 h
SNB-19 = tested on: SNB-19
MDA-N = tested on: MDA-N
UACC-257 = tested on: UACC-257
HT-29 = tested on: HT-29
PC-3 = tested on: PC-3
SK-MEL-2 = tested on: SK-MEL-2
IGROV-1 = tested on: IGROV-1
NCI-H226 = tested on: NCI-H226
LOX IMVI = tested on: LOX IMVI
HCT-15 = tested on: HCT-15
Hs-578T = tested on: Hs-578T
SK-MEL-28 = tested on: SK-MEL-28
HCT-116 = tested on: HCT-116
SNB-75 = tested on: SNB-75
M14 = tested on: M14
COLO 205 = tested on: COLO 205
SK-OV-3 = tested on: SK-OV-3
OVCAR-3 = tested on: OVCAR-3
CCRF-CEM = tested on: CCRF-CEM
MOLT-4 = tested on: MOLT-4

Row | SMILES | GI50 (SNB-19) | GI50 (MDA-N) | GI50 (UACC-257) | GI50 (HT-29) | GI50 (PC-3) | GI50 (SK-MEL-2) | GI50 (IGROV-1) | GI50 (NCI-H226) | GI50 (LOX IMVI) | GI50 (HCT-15) [µM] | GI50 (Hs-578T) | GI50 (SK-MEL-28) | GI50 (HCT-116) | GI50 (SNB-75) | GI50 (M14) | GI50 (COLO 205) | GI50 (SK-OV-3) | GI50 (OVCAR-3) | GI50 (CCRF-CEM) | GI50 (MOLT-4)
1 | Cc1nc2ccccc2nc1N1CCCC1 | > 100 µM (inactive) | > 100 µM (inactive) | > 100 µM (inactive) | > 100 µM (inactive) | > 100 µM (inactive) | > 100 µM (inactive) | > 100 µM (inactive) | > 100 µM (inactive) | > 100 µM (inactive) | > 100 | > 100 µM (inactive) | > 100 µM (inactive) | > 100 µM (inactive) | 68.2 µM (inactive) | > 100 µM (inactive) | > 100 µM (inactive) | > 100 µM (inactive) | – | – | –
2 | COc1cc2c(C)cc(O)cc2c2cc(O)c(C)cc12 | 11.5 µM (inactive) | 10.2 µM (inactive) | 12.5 µM (inactive) | 14.7 µM (inactive) | 9.57 µM (inactive) | 14.8 µM (inactive) | 14.1 µM (inactive) | 13.5 µM (inactive) | 2.23 µM (inactive) | 8.55 | 19.1 µM (inactive) | – | 10.7 µM (inactive) | – | 1.94 µM (inactive) | 9.91 µM (inactive) | 12.9 µM (inactive) | 12 µM (inactive) | 2.78 µM (inactive) | 5.83 µM (inactive)
3 | COC(=O)CCn1cnc2c(SC)ncnc21 | > 100 µM (inactive) | > 100 µM (inactive) | > 100 µM (inactive) | > 100 µM (inactive) | > 100 µM (inactive) | – | > 100 µM (inactive) | > 100 µM (inactive) | > 100 µM (inactive) | – | > 100 µM (inactive) | > 100 µM (inactive) | > 100 µM (inactive) | > 100 µM (inactive) | > 100 µM (inactive) | > 100 µM (inactive) | > 100 µM (inactive) | > 100 µM (inactive) | > 100 µM (inactive) | > 100 µM (inactive)
4 | O=C(O)CNC(=O)C1NC(C(F)(F)F)(C(F)(F)F)OC1(C(F)(F)F)C(F)(F)F (configuration not stated) | > 100 µM (inactive) | > 100 µM (inactive) | > 100 µM (inactive) | > 100 µM (inactive) | > 100 µM (inactive) | > 100 µM (inactive) | > 100 µM (inactive) | > 100 µM (inactive) | > 100 µM (inactive) | > 100 | > 100 µM (inactive) | > 100 µM (inactive) | > 100 µM (inactive) | > 100 µM (inactive) | > 100 µM (inactive) | > 100 µM (inactive) | > 100 µM (inactive) | > 100 µM (inactive) | – | > 100 µM (inactive)
5 | COc1ccccc1N1CCN(S(=O)(=O)c2ccc(Cl)cc2)C1=N | 51.3 µM (inactive) | 49.3 µM (inactive) | 41.6 µM (inactive) | – | 56.8 µM (inactive) | 57.4 µM (inactive) | – | – | – | 62.4 | 78 µM (inactive) | 75 µM (inactive) | 27.9 µM (inactive) | > 100 µM (inactive) | 26.2 µM (inactive) | 73.6 µM (inactive) | > 100 µM (inactive) | 97.9 µM (inactive) | – | 43 µM (inactive)
6 | O=C(O)CCCc1ccc2c(c1)CC1(C2)Cc2ccc(CCCC(=O)O)cc2C1 | – | > 100 µM (inactive) | > 100 µM (inactive) | > 100 µM (inactive) | > 100 µM (inactive) | > 100 µM (inactive) | > 100 µM (inactive) | > 100 µM (inactive) | > 100 µM (inactive) | > 100 | > 100 µM (inactive) | – | > 100 µM (inactive) | – | > 100 µM (inactive) | > 100 µM (inactive) | > 100 µM (inactive) | > 100 µM (inactive) | > 100 µM (inactive) | > 100 µM (inactive)
7 | CCCCNc1nc(N)nc(Nc2ccc(Br)cc2)c1N=O | > 100 µM (inactive) | > 100 µM (inactive) | > 100 µM (inactive) | 86.5 µM (inactive) | 67.5 µM (inactive) | > 100 µM (inactive) | > 100 µM (inactive) | > 100 µM (inactive) | 31.6 µM (inactive) | 78 | 27.5 µM (inactive) | > 100 µM (inactive) | 84.9 µM (inactive) | 52.2 µM (inactive) | > 100 µM (inactive) | 47 µM (inactive) | – | 56.5 µM (inactive) | 42.1 µM (inactive) | 18.8 µM (inactive)
8 | N=C(N)NC(=N)Nc1c(F)c(F)c(F)c(F)c1F | > 100 µM (inactive) | 69.7 µM (inactive) | 23.6 µM (inactive) | 96.8 µM (inactive) | 97.9 µM (inactive) | > 100 µM (inactive) | > 100 µM (inactive) | > 100 µM (inactive) | – | > 100 | 95.3 µM (inactive) | > 100 µM (inactive) | 70.5 µM (inactive) | > 100 µM (inactive) | 21.1 µM (inactive) | 54 µM (inactive) | > 100 µM (inactive) | > 100 µM (inactive) | – | –
9 | COc1cc(Nc2nc3ccccc3nc2C(=O)O)cc(OC)c1OC | 70.6 µM (inactive) | > 100 µM (inactive) | 87.3 µM (inactive) | – | > 100 µM (inactive) | – | 78.3 µM (inactive) | > 100 µM (inactive) | 53 µM (inactive) | 32.4 | 20.8 µM (inactive) | 30.1 µM (inactive) | > 100 µM (inactive) | 47.2 µM (inactive) | 73.6 µM (inactive) | > 100 µM (inactive) | 59.2 µM (inactive) | 45.8 µM (inactive) | 83.2 µM (inactive) | > 100 µM (inactive)
10 | CC(C)=CCC/C(C)=C/COC(C)(C)C1=CCC(C)CC1.CC(C)=CCC/C(C)=C/COC1CC(C)CCC1=C(C)C (configuration not stated) | > 100 µM (inactive) | > 100 µM (inactive) | 63.8 µM (inactive) | > 100 µM (inactive) | > 100 µM (inactive) | – | > 100 µM (inactive) | – | – | > 100 | > 100 µM (inactive) | > 100 µM (inactive) | > 100 µM (inactive) | > 100 µM (inactive) | > 100 µM (inactive) | > 100 µM (inactive) | > 100 µM (inactive) | > 100 µM (inactive) | – | 18.2 µM (inactive)
11 | CC1(C)C2CCC1C(=O)[C@@]1(C=CC(=O)CC1)C2 (some centres not stated) | > 100 µM (inactive) | > 100 µM (inactive) | > 100 µM (inactive) | > 100 µM (inactive) | > 100 µM (inactive) | – | > 100 µM (inactive) | > 100 µM (inactive) | > 100 µM (inactive) | > 100 | > 100 µM (inactive) | 43.1 µM (inactive) | > 100 µM (inactive) | 61.1 µM (inactive) | > 100 µM (inactive) | > 100 µM (inactive) | > 100 µM (inactive) | > 100 µM (inactive) | > 100 µM (inactive) | > 100 µM (inactive)
12 | O=[N+]([O-])c1ccc(/C=C\c2ccc3c(c2)OCO3)c([N+](=O)[O-])c1 | 17.3 µM (inactive) | 5.52 µM (inactive) | 17.3 µM (inactive) | 19.9 µM (inactive) | 24.8 µM (inactive) | 18.3 µM (inactive) | 12.2 µM (inactive) | – | 13.4 µM (inactive) | 14.6 | 16.8 µM (inactive) | 17.1 µM (inactive) | 5.53 µM (inactive) | 17.7 µM (inactive) | 15.3 µM (inactive) | 18.4 µM (inactive) | 18.7 µM (inactive) | 18.2 µM (inactive) | 18.2 µM (inactive) | 17.5 µM (inactive)
13 | Cc1ccc(S(=O)(=O)n2cnc(CC(NC(=O)C3CCC(=O)N3C(=O)OCc3ccccc3)C(=O)N3CCCC3C(=O)NN)c2)cc1 (configuration not stated) | 48.8 µM (inactive) | > 100 µM (inactive) | > 100 µM (inactive) | > 100 µM (inactive) | > 100 µM (inactive) | > 100 µM (inactive) | > 100 µM (inactive) | 24.8 µM (inactive) | – | > 100 | > 100 µM (inactive) | > 100 µM (inactive) | > 100 µM (inactive) | > 100 µM (inactive) | > 100 µM (inactive) | > 100 µM (inactive) | – | – | – | > 100 µM (inactive)
14 | COc1ccc2[nH]c3c(c2c1)CC(=O)N1CCC[C@H](C1)CC31OCCCO1 | > 100 µM (inactive) | > 100 µM (inactive) | > 100 µM (inactive) | > 100 µM (inactive) | > 100 µM (inactive) | > 100 µM (inactive) | 92.7 µM (inactive) | > 100 µM (inactive) | – | > 100 | 86.7 µM (inactive) | > 100 µM (inactive) | > 100 µM (inactive) | 86.9 µM (inactive) | > 100 µM (inactive) | > 100 µM (inactive) | > 100 µM (inactive) | > 100 µM (inactive) | 64.6 µM (inactive) | –
15 | C[C@H](OC(=O)/C=C/c1ccc(O)c(O)c1)[C@H](C)OC(=O)/C=C/c1ccc(O)c(O)c1 | 7.93 µM (inactive) | 4.45 µM (inactive) | 10.1 µM (inactive) | 12.2 µM (inactive) | 13.1 µM (inactive) | 10.4 µM (inactive) | 5.2 µM (inactive) | – | 3.35 µM (inactive) | 4.71 | 6.65 µM (inactive) | 11.5 µM (inactive) | 3.72 µM (inactive) | 15.7 µM (inactive) | 6.19 µM (inactive) | 20.3 µM (inactive) | 16.3 µM (inactive) | 4.24 µM (inactive) | – | 2.49 µM (inactive)
16 | O=Cc1coc2ccccc2c1=O | 24.6 µM (inactive) | 20.5 µM (inactive) | 18.7 µM (inactive) | 20.7 µM (inactive) | 18.8 µM (inactive) | – | 15.7 µM (inactive) | 37.7 µM (inactive) | 16.9 µM (inactive) | 14.3 | 18.2 µM (inactive) | – | 16.5 µM (inactive) | < 0.01 µM (active) | 17.9 µM (inactive) | 16.1 µM (inactive) | 20 µM (inactive) | 32.1 µM (inactive) | 18.2 µM (inactive) | 24.9 µM (inactive)
